Test results from patent US7939562B2, “Amphiphilic derivatives for the production of vesicles, micelles and complexants, and precursors thereof” (Ben-Gurion University of The Negev Research and Development …, priority 2001, dated 2011).

Legend:
Vesicle size by TEM = format: physicochemical; set-up: unit not given here; settings: bilayer vesicles
Protocol: Two main methods were used to prepare the vesicles: In method (1), 100-200 μl of the amphiphilic derivative dissolved in methanol was injected into 2-4 ml of an aqueous solution which contained the compound to be encapsulated. The mixture was sonicated in a bath sonicator (Branson 2510) for a short (1,2,5,10 min) or long (60 min) period, depending on the desired vesicle size (dozen or hundred nanometer) and uniformity. In method (2), the amphiphilic derivative dissolved in methanol (250-1000 μl) was added to a 50-ml round-bottom flask, the solvent was removed under reduced pressure by a rotary evaporator and a thin oily film was formed on the flask bottom. An aqueous solution containing the compound desired to encapsulate (1-4 ml) was added to the flask and the mixture was sonicated in a bath sonicator for 1-5 min at 60° C.
TEM (transmission electron microscopy) experiments were carried out using negative staining technique, employing saturated uranyl acetate solution (after centrifuge). The grid was immersed in the vesicle solution for 1.5 minutes and then was stained in the uranyl acetate solution for 1.5 min. The grid (300 mesh copper Formvar/carbon) was then dried at room temperature on filter paper. […]
Derivative 10 was made into vesicles according to Example 41. […] The vesicles were purified by filtration and the presence of radioactivity in the purified sample indicated encapsulation.

[1] = test system: bronchial epithelial cells; experiment: Uptake of vesicle-encapsulated 14C-methylated albumin by cells (radioactivity); format: cell-based; settings: 14C-methylated albumin encapsulated in vesicles, compared with non-encapsulated albumin
Protocol: Derivative 10 was made into vesicles according to Example 41. […] The same method was used to encapsulate ^14C-methylated albumin (purchased from Sigma Chemicals) by adding 0.2 mg of the tagged albumin. The vesicles were purified by filtration and the presence of radioactivity in the purified sample indicated encapsulation.

[2] = test system: bronchial epithelial cells; experiment: Uptake of complexed DNA plasmid by cells (confocal microscope); format: cell-based; settings: DNA plasmid complexed with the amphiphile, compared to non-complexed DNA
Protocol: Purified Derivative 4 was used to complex with a DNA plasmid (purchased from Sigma Chemicals, 5 ng/microliter, stained in FITC; ULSIS Alexa Fluor® 488 Nucleic acid labeling kit) or rhodamine. The complexation was achieved by mixing the amphiphilic Derivative 4 (200 microliters containing […] of the compound) with […] of the DNA sample and letting it shake gently for a short period of time. The mixture is not sonicated to prevent vesicle formation in which the DNA is encapsulated. The sample was then incubated in a culture containing bronchial epithelial cells.

SMILES	vesicle size (Vesicle size by TEM)	uptake of the albumin by the cells [1]	uptake of DNA by the cells [2]
CCCCCCCCCCCC[N+](C)(C)CC(=O)OC(CCCCC)C(O)C/C=C/CC(=O)NCCNC(=O)C/C=C/CC(O)C(CCCCC)OC(=O)C[N+](C)(C)CCCCCCCCCCCC (stereo not drawn) [Derivative 10]	350	significantly greater uptake of the albumin	–
CCCCCC(OC(=O)CN(CCCN)CCCCN)C(O)CCCCC(=O)OC (stereo not drawn) [Derivative 4]	–	–	significantly greater uptake of DNA
